# Reference: patent US20200038412A1, “METHODS OF TREATING ALZHEIMER'S DISEASE USING AMINOSTEROL COMPOSITIONS” (Enterin, Inc., priority 2018, published 2020)
# “And” between values parts separate entries of the source, which are not always exact repeats. Equal values may be shown once.
# Assays:
# [1] = test system: patients with PD and constipation; assay: Phase 2 trial Stage 2: adverse events; format: in vivo, human
# Method: In Stage 2, 34 patients were evaluated.
# [2] = test system: patients with PD and constipation; assay: Phase 2 trial Stage 2: CNS symptoms (UPDRS, MMSE, PDHQ, BDI-II, sleep diary); format: in vivo, human; conditions: for patients in whom hallucinations and delusions improved or disappeared during treatment: 6 patients with hallucinations (5) or delusions (1) at baseline; for UPDRS Part 1 (NMS): baseline 11.6 (6.51); for UPDRS Total: baseline 64.4 (23.72); for BDI-II: baseline 10.9 (7.12); for MMSE: baseline 28.4 (1.75)
# From the text: Exploratory end-points, in addition to constipation, included for example, (i) depression assessed using the Beck Depression Inventory (BDI-II) (Steer et al. 2000) and Unified Parkinson's Disease Rating Scale (UPDRS); (ii) cognition assessed using the Mini Mental State Examination (MMSE) (Palsteia et al. 2018), Unified Parkinson's Disease Rating Scale (UPDRS), and Trail Making Test (TMT); (iii) sleep and REM-behavior disorder (RBD) using a daily sleep diary, I-Button Temperature Assessment, a REM sleep behavior disorder (RBD) questionnaire (RBDQ) (Stiasny-Kolster et al. 2007), and the UPDRS; (iv) hallucinations assessed using the PD hallucinations questionnaire (PDHQ) (Papapetropoulos et al. 2008), the UPDRS, and direct questioning; (v) fatigue using the Parkinson's Disease Fatigue Scale (PFS-16) and the UPDRS; (vi) motor functions using the UPDRS; and (vii) non-motor functions using the UPDRS.
# Assessments were made at baseline and at the end of the fixed dose and washout periods. Circadian system status was evaluated by continuously monitoring wrist skin temperature (Thermochron iButton DS1921H; Maxim, Dallas) following published procedures (Sarabia et al. 2008).
# An exploratory analysis was done with respect to the sleep data, the body temperature data, mood, fatigue, hallucinations, cognition and other motor and non-motor symptoms of PD. Continuous measurements within a subject were compared with a paired t-test and continuous measurements between subject groups were compared with a two-group t-test. Categorical data were compared with a chi-squared test or a Fisher's exact test if the expected cell counts are too small for a chi-squared test.
# CNS symptoms were evaluated at baseline and at the end of the fixed dose period and the wash-out period (Table 12). Total UPDRS score was 64.4 at baseline, 60.6 at the end of the fixed dose period and 55.7 at the end of the wash-out period (p=0.002); similarly, the motor component of the UPDRS improved from 35.3 at baseline to 33.3 at the end of fixed dose to 30.2 at the end of wash-out (p=0.006). MMSE improved from 28.4 at baseline to 28.7 during treatment and to 29.3 during wash-out (p=0.0006). […] PDHQ improved from 1.3 at baseline to 1.8 during treatment and 0.9 during wash-out (p=0.03). Hallucinations were reported by 5 patients at baseline and delusions in 1 patient. […] The frequency of arm or leg thrashing reported in the sleep diary diminished progressively from 2.2 episodes/week at baseline to 0 at maximal dose. […] Unlike stool-related indices, the improvement in many CNS symptoms persisted during wash-out.
# [3] = Preclinical oral dosing in rats; format: in vivo
# C. elegans model of PD = conditions: in vivo, C. elegans (Perni et al. 2017); cited from earlier work
# [4] = Stage 2, end of fixed dose, mean (SD), n = 34
# [5] = Stage 2, end of wash-out, mean (SD)
# [6] = Stage 2, fixed dose, mean (SD), n = 34
compound,measurement,setting,value
"CC(C)[C@@H](CC[C@@H](C)[C@H]1CC[C@H]2[C@@H]3[C@H](O)C[C@H]4C[C@@H](NCCCNCCCCN)CC[C@]4(C)[C@H]3CC[C@]12C)OS(=O)(=O)O (single isomer, unassigned) [squalamine (ENT-01), squalamine]",AEs confined to the GI tract,[1]; Stage 2,63%
same,Diarrhea (common adverse events by dose),"[1]; Stage 2, 75 mg",7
same,"Dizziness, lightheadedness included (common adverse events by dose)","[1]; Stage 2, 75 mg",8
same,Nausea (common adverse events by dose),"[1]; Stage 2, 75 mg",3
same,Diarrhea (common adverse events by dose),"[1]; Stage 2, 100 mg",10
same,"Dizziness, lightheadedness included (common adverse events by dose)","[1]; Stage 2, 100 mg",7
same,Nausea (common adverse events by dose),"[1]; Stage 2, 100 mg",12
same,Diarrhea (common adverse events by dose),"[1]; Stage 2, 125 mg",3
same,"Dizziness, lightheadedness included (common adverse events by dose)","[1]; Stage 2, 125 mg",8
same,Nausea (common adverse events by dose),"[1]; Stage 2, 125 mg",4
same,Diarrhea (common adverse events by dose),"[1]; Stage 2, 150 mg",2
same,"Dizziness, lightheadedness included (common adverse events by dose)","[1]; Stage 2, 150 mg",2
same,Nausea (common adverse events by dose),"[1]; Stage 2, 150 mg",11
same,Diarrhea (common adverse events by dose),"[1]; Stage 2, 175 mg",1
same,"Dizziness, lightheadedness included (common adverse events by dose)","[1]; Stage 2, 175 mg",0
same,Nausea (common adverse events by dose),"[1]; Stage 2, 175 mg",12
same,Diarrhea (common adverse events by dose),"[1]; Stage 2, 200 mg",3
same,Nausea (common adverse events by dose),"[1]; Stage 2, 200 mg",6
same,Diarrhea (common adverse events by dose),"[1]; Stage 2, 225 mg",3
same,Nausea (common adverse events by dose),"[1]; Stage 2, 225 mg",1
same,Diarrhea (common adverse events by dose),"[1]; Stage 2, 250 mg",2
same,patients with diarrhea,"[1]; Stage 2, 15/34 patients",44%
same,patients with nausea,"[1]; Stage 2, 18/34 patients",52.9%
same,"Abdominal pain, Mild","[1]; Stage 2, 34 dosed","4 (11.7) n, %"
same,"Abdominal pain, Moderate","[1]; Stage 2, 34 dosed","2 (5.8) n, %"
same,"Blood in urine, Mild","[1]; Stage 2, 34 dosed","0 n, %"
same,"Blood in urine, Moderate","[1]; Stage 2, 34 dosed","0 n, %"
same,"Diarrhea, Mild","[1]; Stage 2, 34 dosed","12 (35) n, %"
same,"Diarrhea, Moderate","[1]; Stage 2, 34 dosed","2 (5.8) n, %"
same,"Diarrhea, Severe","[1]; Stage 2, 34 dosed","1 (2.9) n, %"
same,"Difficulty falling asleep, Mild","[1]; Stage 2, 34 dosed","1 (3) n, %"
same,"Difficulty falling asleep, Moderate","[1]; Stage 2, 34 dosed","0 n, %"
same,"Dizziness, Mild","[1]; Stage 2, 34 dosed","7 (20.5) n, %"
same,"Dizziness, Moderate","[1]; Stage 2, 34 dosed","1 (2.9) n, %"
same,"Eye infection, Mild","[1]; Stage 2, 34 dosed","1 (3) n, %"
same,"Eye infection, Moderate","[1]; Stage 2, 34 dosed","0 n, %"
same,"Flatulence, Mild","[1]; Stage 2, 34 dosed","1 (3) n, %"
same,"Flatulence, Moderate","[1]; Stage 2, 34 dosed","0 n, %"
same,"Headache, Mild","[1]; Stage 2, 34 dosed","3 (8.8) n, %"
same,"Headache, Moderate","[1]; Stage 2, 34 dosed","0 n, %"
same,"Increased urinary frequency, Mild","[1]; Stage 2, 34 dosed","2 (5.8) n, %"
same,"Increased urinary frequency, Moderate","[1]; Stage 2, 34 dosed","0 n, %"
same,"Loss of appetite, Mild","[1]; Stage 2, 34 dosed","0 n, %"
same,"Loss of appetite, Moderate","[1]; Stage 2, 34 dosed","0 n, %"
same,"Nausea, Mild","[1]; Stage 2, 34 dosed","18 (52) n, %"
same,"Nausea, Moderate","[1]; Stage 2, 34 dosed","1 (2.9) n, %"
same,"Skin lesions-rash, Mild","[1]; Stage 2, 34 dosed","3 (8.8) n, %"
same,"Skin lesions-rash, Moderate","[1]; Stage 2, 34 dosed","0 n, %"
same,"Urinary retention, Mild","[1]; Stage 2, 34 dosed","1 (3) n, %"
same,"Urinary retention, Moderate","[1]; Stage 2, 34 dosed","0 n, %"
same,"Urinary tract infection, Mild","[1]; Stage 2, 34 dosed","1 (3) n, %"
same,"Urinary tract infection, Moderate","[1]; Stage 2, 34 dosed","2 (5.8) n, %"
same,"Vomiting, Mild","[1]; Stage 2, 34 dosed","2 (5.8) n, %"
same,"Vomiting, Moderate","[1]; Stage 2, 34 dosed","0 n, %"
same,"Worsening acid reflux, Mild","[1]; Stage 2, 34 dosed","4 (11.7) n, %"
same,"Worsening acid reflux, Moderate","[1]; Stage 2, 34 dosed","0 n, %"
same,"Worsening hemorrhoid, Mild","[1]; Stage 2, 34 dosed","1 (3) n, %"
same,"Worsening hemorrhoid, Moderate","[1]; Stage 2, 34 dosed","0 n, %"
same,patients terminated prior to completion because of recurrent dizziness,"[1]; Stage 2, two patients",5.8%
same,"Lower GI bleed, Severe","[1]; Stage 2, colonic diverticulosis, polyp, patient on aspirin, Plavix and naproxen, unrelated to ENT-01","1 (2.5) n, %"
same,patients in whom hallucinations and delusions improved or disappeared during treatment,[2],5 of 6
same,patients in whom hallucinations and delusions improved or disappeared during treatment,[2]; listed as ENT-01,five
same,patients in whom hallucinations and delusions improved or disappeared during treatment,[2]; listed as aminosterol,five and 5 of 6
same,increase of total sleep time,[2]; 7.1 hours at baseline to 8.4 hours at 250 mg,18%
same,UPDRS Part 1 (NMS),[2]; [4],10.6 (6.18))
same,UPDRS Total,[2]; [4],60.6
same,UPDRS Total,"[2]; Stage 2, end of fixed dose, mean (SD), n = 34, listed as Squalamine (ENT-01)",60.6 (25.60)
same,UPDRS Part 1 (NMS),[2]; [5],9.5 (5.27)
same,UPDRS Total,[2]; [5],55.7
same,UPDRS Total,"[2]; Stage 2, end of wash-out, mean (SD), listed as Squalamine (ENT-01)",55.7 (23.69)
same,BDI-II,[2]; [6],9.9 (6.45)
same,MMSE,[2]; [6],28.7 (1.9)
same,PDHQ,"[2]; Stage 2, wash-out, mean (SD), baseline 1.3 (2.99)",0.9 (2.33)
same,BDI-II,"[2]; Stage 2, wash-out, mean (SD)",8.7 (5.19)
same,MMSE,"[2]; Stage 2, wash-out, mean (SD)",29.3 (1.06)
same,frequency of arm or leg thrashing reported in the sleep diary,"[2]; at maximal dose, baseline 2.2",0 episodes/week
same,improvement of frequency of arm or leg thrashing,[2]; baseline 2.2 episodes/week to 0 at maximal dose,100%
same,improvement in depression scoring (BDI-II),[2]; baseline 10.9 to wash-out 8.7,20%
same,improvement of UPDRS Part 1,"[2]; baseline 11.6 to wash-out 9.5, listed as aminosterol",~20% and 18%
same,improvement of total UPDRS score,[2]; baseline 64.4 to end of wash-out 55.7,13.5%
same,total sleep time versus baseline,[2]; beyond 125 mg,consistently higher than baseline
same,time patient remained free of hallucinations following cessation of dosing,[2]; one patient,1 month
same,dose at which hallucinations disappeared,"[2]; one patient, colonic prokinetic dose of 175 mg not reached",100 mg
same,absorption from the intestine,"[3]; rat, portal blood concentrations following oral dosing of radioactive ENT-01",low
same,bioavailability,[3]; rats,limited bioavailability
same,tolerability,[3]; rats,well tolerated
same,formation of aggregates of αS,C. elegans model of PD,inhibit the formation of aggregates of αS
